Laboratory results: ChEMBL document CHEMBL2073903, “The expression of P-glycoprotein does influence the distribution of novel fluorescent compounds in solid tumour models” (Br J Cancer, 2003)

Molecular target: ATP-dependent translocase ABCB1 (Homo sapiens, UniProt P08183)
Test: TP_TRANSPORTER: ATPase assay in reconstituted P-gp
Assay type: functional

ATP-dependent translocase ABCB1, sequence (P08183 whole entry): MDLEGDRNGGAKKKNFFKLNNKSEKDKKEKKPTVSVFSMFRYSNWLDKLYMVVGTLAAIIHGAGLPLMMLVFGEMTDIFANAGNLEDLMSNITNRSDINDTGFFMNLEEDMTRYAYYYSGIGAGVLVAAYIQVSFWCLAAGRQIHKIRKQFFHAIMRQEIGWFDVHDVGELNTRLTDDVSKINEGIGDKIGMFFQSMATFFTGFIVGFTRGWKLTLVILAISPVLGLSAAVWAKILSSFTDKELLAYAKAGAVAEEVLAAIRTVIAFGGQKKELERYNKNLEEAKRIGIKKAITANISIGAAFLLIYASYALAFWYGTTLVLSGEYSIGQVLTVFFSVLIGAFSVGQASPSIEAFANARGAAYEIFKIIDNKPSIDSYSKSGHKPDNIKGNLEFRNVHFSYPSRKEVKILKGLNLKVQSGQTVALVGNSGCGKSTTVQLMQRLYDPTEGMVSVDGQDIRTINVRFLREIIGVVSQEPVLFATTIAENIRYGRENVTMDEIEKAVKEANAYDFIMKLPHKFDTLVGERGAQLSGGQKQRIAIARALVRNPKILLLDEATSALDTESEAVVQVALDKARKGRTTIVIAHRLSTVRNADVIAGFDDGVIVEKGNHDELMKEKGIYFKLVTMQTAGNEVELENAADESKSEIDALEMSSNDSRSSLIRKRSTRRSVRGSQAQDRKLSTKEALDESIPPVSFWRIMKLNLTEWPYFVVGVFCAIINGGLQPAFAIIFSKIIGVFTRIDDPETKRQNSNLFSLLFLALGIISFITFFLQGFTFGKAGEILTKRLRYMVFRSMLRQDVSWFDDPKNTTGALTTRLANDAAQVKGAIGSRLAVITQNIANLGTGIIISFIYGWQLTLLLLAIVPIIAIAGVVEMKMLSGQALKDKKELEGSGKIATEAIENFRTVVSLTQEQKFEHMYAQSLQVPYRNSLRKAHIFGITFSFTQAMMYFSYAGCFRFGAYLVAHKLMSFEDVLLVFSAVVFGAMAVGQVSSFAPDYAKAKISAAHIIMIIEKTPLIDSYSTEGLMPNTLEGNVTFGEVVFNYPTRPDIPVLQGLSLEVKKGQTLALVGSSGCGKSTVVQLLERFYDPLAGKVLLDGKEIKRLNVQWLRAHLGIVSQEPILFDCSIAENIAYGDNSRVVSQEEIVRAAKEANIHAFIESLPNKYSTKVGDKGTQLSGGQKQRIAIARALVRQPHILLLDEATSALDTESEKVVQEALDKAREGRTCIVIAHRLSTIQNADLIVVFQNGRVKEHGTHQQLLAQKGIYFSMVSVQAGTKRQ

Activity: substrate [+]
SMILES: CC(=O)O[C@H]1C(=O)[C@@]2(C)C([C@H](OC(=O)c3ccccc3)[C@]3(O)C[C@H](OC(=O)[C@H](O)[C@@H](NC(=O)CCC4=[N+]5C(=Cc6c(C)cc(C)n6[B-]5(F)F)C=C4)c4ccccc4)C(C)=C1C3(C)C)[C@]1(OC(C)=O)CO[C@@H]1C[C@@H]2O (stereo partly specified)
